The source of these data is ChEMBL document CHEMBL1148865, “A long-acting selective neuropeptide Y2 receptor PEGylated peptide agonist reduces food intake in mice” (Bioorg Med Chem Lett, 2007).

Assay [1] addresses T1, Neuropeptide Y receptor type 2 (Homo sapiens) (UniProt P49146).
T1 sequence (whole entry): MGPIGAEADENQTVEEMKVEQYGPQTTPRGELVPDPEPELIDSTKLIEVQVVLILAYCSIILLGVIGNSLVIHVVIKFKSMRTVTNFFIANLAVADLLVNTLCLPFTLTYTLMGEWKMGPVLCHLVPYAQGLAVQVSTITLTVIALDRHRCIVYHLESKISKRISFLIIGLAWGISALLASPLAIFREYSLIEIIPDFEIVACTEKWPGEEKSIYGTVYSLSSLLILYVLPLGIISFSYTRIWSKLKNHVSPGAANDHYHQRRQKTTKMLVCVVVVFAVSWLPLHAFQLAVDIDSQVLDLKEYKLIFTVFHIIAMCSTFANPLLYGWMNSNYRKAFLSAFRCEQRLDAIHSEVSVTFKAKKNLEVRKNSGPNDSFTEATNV
Kind of assay: Agonist activity at human NPY2 receptor in KAN-TS cells at 1 uM by [35S]GTP-gamma-S binding assay. In kind it is functional, cell-based. A general note: GTPγS is a poorly hydrolysed GTP analogue; its binding reports G protein activation.

Assay [2] addresses T2, Neuropeptide Y receptor type 1 (Homo sapiens, UniProt P25929).
T2 sequence (P25929 whole entry): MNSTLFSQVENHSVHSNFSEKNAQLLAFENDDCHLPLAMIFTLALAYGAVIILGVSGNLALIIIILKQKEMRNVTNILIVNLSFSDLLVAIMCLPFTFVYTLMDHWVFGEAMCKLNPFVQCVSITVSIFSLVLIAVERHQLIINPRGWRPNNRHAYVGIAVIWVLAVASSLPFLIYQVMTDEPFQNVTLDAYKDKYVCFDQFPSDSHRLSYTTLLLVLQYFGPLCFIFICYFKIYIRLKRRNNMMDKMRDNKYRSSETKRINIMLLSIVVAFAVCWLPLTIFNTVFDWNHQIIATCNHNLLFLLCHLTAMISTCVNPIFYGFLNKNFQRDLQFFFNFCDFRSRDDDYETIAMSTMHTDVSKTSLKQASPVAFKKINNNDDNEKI
The experiment in a line: Displacement of [125I]PYY from human NPY1 receptor in SK-N-MC cells. In kind it is cell-based. In general terms: Displacement assays read how much labelled ligand stays bound in the presence of the test substance.

Assay [3] addresses T3, Neuropeptide Y receptor type 5 (Homo sapiens, UniProt Q15761).
T3 sequence (Q15761 whole entry): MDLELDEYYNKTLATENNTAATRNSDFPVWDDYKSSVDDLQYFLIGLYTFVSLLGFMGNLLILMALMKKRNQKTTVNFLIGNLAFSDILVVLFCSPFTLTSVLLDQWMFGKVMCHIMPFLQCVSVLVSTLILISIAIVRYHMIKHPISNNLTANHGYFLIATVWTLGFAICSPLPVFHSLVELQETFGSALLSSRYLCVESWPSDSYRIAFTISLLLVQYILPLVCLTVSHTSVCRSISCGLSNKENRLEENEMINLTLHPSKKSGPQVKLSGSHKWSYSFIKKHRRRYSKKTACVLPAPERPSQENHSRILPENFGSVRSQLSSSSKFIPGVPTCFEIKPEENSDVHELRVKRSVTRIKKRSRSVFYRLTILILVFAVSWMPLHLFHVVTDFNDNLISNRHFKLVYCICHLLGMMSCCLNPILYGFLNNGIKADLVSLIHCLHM
Kind of assay: Displacement of [125I]PYY from human NPY5 receptor in HEK293 cells. In kind it is cell-based.

Assay [4] addresses T4, Neuropeptide Y receptor type 2 (Homo sapiens, UniProt P49146).
T4 sequence (P49146 whole entry): T1 sequence (whole entry)
Kind of assay: Displacement of [125I]PYY from human NPY2 receptor in KAN-TS cells by SPA assay. Type of assay: cell-based.

Assay [5] deals with T4, Neuropeptide Y receptor type 2. Kind of assay: Agonist activity at human NPY2 receptor in KAN-TS cells by [35S]GTP-gamma-S binding assay. Type of assay: functional, cell-based.
A further assay deals with Mus musculus. Kind of assay: Reduction of food intake in C57BL/6 mouse at 10 mg/kg, sc after 1 to 24 hrs. Type of assay: functional. More on the design: scale not given: the % may be the effect or the level left. The following applies: route subcutaneous.

Some results are limits rather than exact numbers.

Ac-CLRHYLNLLTRQRY-NH2 displayed an E/Emax in assay [1] of 94%. Besides, the Ki (usually the equilibrium dissociation constant of an inhibitor or competing ligand from its target) in assay [2] was more than 1 µM; in assay [3], more than 1 µM; in assay [4] it was 0.0082 µM. It took 0.033 µM to reach a half-maximal effect in assay [5] (EC50).
The substance Ac-LRHYLNLLTRQRY-NH2 came in with an E/Emax in assay [1] of 100%. Besides, the inhibition constant Ki in assay [2] is 0.21 µM; in assay [3] it was more than 1 µM; in assay [4], 0.005 µM. For the same substance, the Activity in the assay on Mus musculus stood at 6%. Also, the EC50 (usually the concentration needed to bring the measured effect to its halfway point) in assay [5] worked out at 0.006 µM.
Ac-LRHYLNLLTRQRYC-NH2 yielded an E/Emax in assay [1] of 81%. Also, the Ki in assay [2] was more than 1 µM; in assay [3], more than 1 µM; in assay [4], 0.2 µM. The midpoint of the response in assay [5], the EC50, lay at 0.16 µM.
